Patent US20250388584A1, “TPK AGONIST AND METHOD FOR TREATING NEURODEGENERATIVE DISEASES USING SAME” (SHANGHAI RAISING PHARMACEUTICAL CO., LTD., priority 2022, published 2025)

Target: TPK enzyme (Homo sapiens (Human), UniProt Q9H3S4)
Assay: TPK enzyme activity test
Assay type: biochemical
Conditions: for Emax: calculated with the effect of DMSO on TPK enzyme activity as 100%, read-out: Emax; for EC50: promoting effect on TPK enzyme activity

TPK enzyme, sequence (Q9H3S4 whole entry): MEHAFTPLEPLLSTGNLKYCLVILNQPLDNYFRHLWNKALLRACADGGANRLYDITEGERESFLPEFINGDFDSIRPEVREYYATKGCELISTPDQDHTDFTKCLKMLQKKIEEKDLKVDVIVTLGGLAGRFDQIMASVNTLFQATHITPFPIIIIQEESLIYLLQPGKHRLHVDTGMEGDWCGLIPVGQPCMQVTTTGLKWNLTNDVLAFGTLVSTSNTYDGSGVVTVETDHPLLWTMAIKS

**Q.** For `Cc1ccc2[nH]c3c(=O)n(CCC(=O)N4CCN(c5ccccc5)CC4)cnc3c2c1` [Compound 32], which Emax is on record?
**A.** 123%

**Q.** Which results are given for `O=C1Cc2ccc(OCCCN3c4ccccc4Sc4ccccc43)cc2N1` [Compound 190, 6-(3-(10H-phenothiazin-10-yl)propoxy)indoline-2-one]?
**A.** Emax: 164%; EC50: 1110 nM

**Q.** How did the Emax turn out when `Cc1ccc2c(c1)[nH]c1c(=O)n(CCC(=O)N3CCN(c4ccc(Cl)c(Cl)c4)CC3)cnc12` [Compound 19, 3-(3-(4-(3,4-dichlorophenyl)piperazin-1-yl)-3-oxopropyl)-7-methyl-3,5-dihydro-4H-pyrimido[5,4-b]indol-4-one] was run?
**A.** 145%

**Q.** What about the EC50 of the same compound?
**A.** 2000 nM
